Measurements taken from ChEMBL document CHEMBL5338795, “Novel Triazoles with Potent and Broad-Spectrum Antifungal Activity In Vitro and In Vivo” (J Med Chem, 2023).
In brackets after ≈: the same amount, converted by molar mass. Activity calls are given as the source filed them. The rule behind the calls is not given here.

What was measured:
Candida albicans [1] = assay: Antifungal activity against fluconazole-resistant Candida albicans 24D assessed as inhibition of fungal growth measured for 24 hrs by CLSI based microdilution analysis; type: functional
Nakaseomyces glabratus = assay: Antifungal activity against Candida glabrata ATCC 15126 assessed as reduction in fungal growth incubated for 24 hrs by CLSI based microdilution analysis; type: functional
Candida albicans [2] = assay: Induction of resistance development in Candida albicans SC5314 assessed as increase in MIC treated over 8 serial passages by microdilution assay; type: functional
Candida parapsilosis = assay: Antifungal activity against Candida parapsilosis ATCC 22019 assessed as reduction in fungal growth incubated for 24 hrs by CLSI based microdilution analysis; type: functional; conditions: Lodderomyces parapsilosis
[3] = target: T1, Lanosterol 14-alpha demethylase (Candida albicans (strain SC5314 / ATCC MYA-2876) (Yeast), UniProt P10613); assay: Inhibition of CYP51 in Candida albicans […] assessed as decrease in ergosterol biosynthesis level at 1 times MIC80 incubated for 16 hrs by GC-MS analysis (Rvb=67.2%)
T1 sequence (P10613 whole entry): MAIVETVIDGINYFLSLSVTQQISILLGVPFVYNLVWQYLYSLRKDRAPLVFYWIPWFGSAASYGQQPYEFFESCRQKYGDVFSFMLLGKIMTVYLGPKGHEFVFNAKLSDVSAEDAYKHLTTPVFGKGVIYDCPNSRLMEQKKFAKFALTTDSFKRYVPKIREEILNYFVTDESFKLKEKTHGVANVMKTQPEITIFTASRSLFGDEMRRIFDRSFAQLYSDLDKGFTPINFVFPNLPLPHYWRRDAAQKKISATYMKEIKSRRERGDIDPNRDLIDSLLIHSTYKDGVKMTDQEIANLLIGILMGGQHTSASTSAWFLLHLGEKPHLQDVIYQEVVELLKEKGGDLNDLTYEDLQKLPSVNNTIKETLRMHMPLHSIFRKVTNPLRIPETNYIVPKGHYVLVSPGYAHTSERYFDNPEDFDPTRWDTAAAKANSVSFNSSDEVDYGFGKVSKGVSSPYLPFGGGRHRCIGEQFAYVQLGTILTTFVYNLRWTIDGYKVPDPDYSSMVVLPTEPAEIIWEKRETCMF

Candida albicans [4] = assay: Antifungal activity against fluconazole-resistant Candida albicans 112869 assessed as inhibition of fungal growth measured for 24 hrs by CLSI based microdilution analysis; type: functional
Candida albicans [5] = assay: Antifungal activity against fluconazole-resistant Candida albicans 13 assessed as inhibition of fungal growth measured for 24 hrs by CLSI based microdilution analysis; type: functional
Aspergillus fumigatus [6] = assay: Antifungal activity against Aspergillus fumigatus CGMCC3 7795 assessed as reduction in fungal growth incubated for 48 hrs by CLSI based microdilution analysis; type: functional
Candida albicans [7] = assay: Antifungal activity against fluconazole-resistant Candida albicans 901 assessed as inhibition of fungal growth measured for 24 hrs by CLSI based microdilution analysis; type: functional
[8] = Hemolytic activity in mouse RBC assessed as hemolysis at 100 microg/ml incubated for 60 mins relative to control; type: toxicity, cell-based, Erythrocyte; conditions: red blood cells (erythrocytes), at 100 µg/mL, read-out: Activity
Candida albicans [9] = assay: Antifungal activity against fluconazole-resistant Candida albicans 102 assessed as inhibition of fungal growth measured for 24 hrs by CLSI based microdilution analysis; type: functional
CYP3A4 = assay: Selectivity index, ratio of MIC80 for antifungal activity against Candida albicans to IC50 for inhibition of CYP3A4 in human liver microsomes; type: toxicity; conditions: read-out: Selectivity Index
Candida albicans [10] = assay: Antifungal activity against Candida albicans SC5314 assessed as reduction in fungal growth incubated for 24 hrs by CLSI based microdilution analysis; type: functional
Candida tropicalis = assay: Antifungal activity against Candida tropicalis ATCC 750 assessed as reduction in fungal growth incubated for 24 hrs by CLSI based microdilution analysis; type: functional
[11] = target: T1, Lanosterol 14-alpha demethylase; assay: Inhibition of CYP51 in Candida albicans […] assessed as decrease in unknown sterol biosynthesis level at 1 times MIC80 incubated for 16 hrs by GC-MS analysis relative to control
Candida albicans [12] = assay: Antifungal activity against fluconazole-resistant Candida albicans 15 assessed as inhibition of fungal growth measured for 24 hrs by CLSI based microdilution analysis; type: functional
[13] = system: Meyerozyma guilliermondii; assay: Antifungal activity against Meyerozyma guilliermondii ATCC 6260 assessed as reduction in fungal growth incubated for 24 hrs by CLSI based microdilution analysis; type: functional
Candida albicans [14] = assay: Induction of resistance development in Candida albicans SC5314 assessed as fold increase in MIC treated over 20 serial passages by microdilution assay; type: functional
Cryptococcus neoformans = assay: Antifungal activity against Cryptococcus neoformans CGMCC3 1563 assessed as reduction in fungal growth incubated for 72 hrs by CLSI based microdilution analysis; type: functional
Candida albicans [15] = assay: In-vivo antifungal activity against Candida albicans […] infected in skin infected ICR mouse model assessed as reduction in fungal burden in skin at 0.5 mg/kg, ip pretreated for 24 hrs followed by infection and measured for 5 days by Periodic acid-Schiff staining based analysis; type: functional, organism-based; conditions: time 144.0 hrs
Aspergillus fumigatus [16] = assay: In-vivo antifungal activity against Aspergillus fumigatus CGMCC3 7795 infected in ip dosed ICR mouse model assessed as median survival time administered once daily pretreated for 24 hrs followed by infection and measured every 2 hrs for 5 days; type: functional, organism-based; conditions: dose 1.0 mg/kg, time 144.0 hrs
[17] = target: T1, Lanosterol 14-alpha demethylase; assay: Inhibition of CYP51 in Candida albicans SC3514 assessed as decrease in eburicol biosynthesis level at 0.5 times MIC80 incubated for 16 hrs by GC-MS analysis (Rvb=21.38%)
[18] = target: T1, Lanosterol 14-alpha demethylase; assay: Inhibition of CYP51 in Candida albicans […] assessed as decrease in lanosterol biosynthesis level at 0.5 times MIC80 incubated for 16 hrs by GC-MS analysis relative to control
[19] = target: T1, Lanosterol 14-alpha demethylase; assay: Inhibition of CYP51 in Candida albicans […] assessed as decrease in unknown sterol biosynthesis level at 0.5 times MIC80 incubated for 16 hrs by GC-MS analysis relative to control
Candida albicans [20] = assay: In-vivo antifungal activity against Candida albicans […] infected in skin infected ICR mouse model assessed as reduction in fungal burden in skin at 1 mg/kg, ip pretreated for 24 hrs followed by infection and measured for 5 days by Periodic acid-Schiff staining based analysis; type: functional, organism-based; conditions: time 144.0 hrs
Candida albicans [21] = assay: In-vivo antifungal activity against Candida albicans […] infected in ICR mouse model assessed as median survival time at 1 mg/kg, ip administered once daily pretreated for 24 hrs followed by infection and measured every 2 hrs for 5 days; type: functional; conditions: time 144 hrs
Candida albicans [22] = assay: In-vivo antifungal activity against Candida albicans […] infected in skin infected ICR mouse model assessed as wound healing at 0.5 mg/kg, ip pretreated for 24 hrs followed by infection and measured for 5 days; type: functional, organism-based; conditions: time 144.0 hrs
[23] = AUC (0 to infinity) in Sprague-Dawley rat at 2 mg/kg, iv measured at 0.08 to 24 hrs by LC-MS/MS analysis; type: ADME, organism-based; parameters: time 0.08-24 hrs, dose 2 mg/kg, route iv; conditions: in vivo
Candida albicans [24] = assay: In-vivo antifungal activity against multidrug-resistant Candida albicans 24D infected in ICR mouse model assessed as median survival time at 1 mg/kg, ip administered once daily pretreated for 24 hrs followed by infection and measured every 2 hrs for 5 days; type: functional; conditions: time 144 hrs
[25] = Clearance in Sprague-Dawley rat at 2 mg/kg, iv measured at 0.08 to 24 hrs by LC-MS/MS analysis; type: ADME, organism-based; conditions: in vivo, time 0.08-24 hrs
Candida albicans [26] = assay: In-vivo antifungal activity against Candida albicans […] infected in skin infected ICR mouse model assessed as wound healing at 1 mg/kg, ip pretreated for 24 hrs followed by infection and measured for 5 days; type: functional, organism-based; conditions: time 144.0 hrs
[27] = target: T1, Lanosterol 14-alpha demethylase; assay: Inhibition of CYP51 in Candida albicans […] assessed as decrease in ergosterol biosynthesis level at 0.5 times MIC80 incubated for 16 hrs by GC-MS analysis (Rvb=67.2%)
[28] = Half life in Sprague-Dawley rat at 2 mg/kg, iv measured at 0.08 to 24 hrs by LC-MS/MS analysis; type: ADME, organism-based; conditions: in vivo, time 0.08-24 hrs
Cytochrome P450 3A4 = Cytochrome P450 3A4 (Homo sapiens, UniProt P08684); assay: Inhibition of CYP3A4 in human liver microsomes using testosterone as substrate preincubated for 5 mins followed by NADPH addition and measured after 5 mins by LC-MS/MS analysis; type: ADME, Microsome
Chain of Cytochrome P450 3A4 (P08684 whole entry): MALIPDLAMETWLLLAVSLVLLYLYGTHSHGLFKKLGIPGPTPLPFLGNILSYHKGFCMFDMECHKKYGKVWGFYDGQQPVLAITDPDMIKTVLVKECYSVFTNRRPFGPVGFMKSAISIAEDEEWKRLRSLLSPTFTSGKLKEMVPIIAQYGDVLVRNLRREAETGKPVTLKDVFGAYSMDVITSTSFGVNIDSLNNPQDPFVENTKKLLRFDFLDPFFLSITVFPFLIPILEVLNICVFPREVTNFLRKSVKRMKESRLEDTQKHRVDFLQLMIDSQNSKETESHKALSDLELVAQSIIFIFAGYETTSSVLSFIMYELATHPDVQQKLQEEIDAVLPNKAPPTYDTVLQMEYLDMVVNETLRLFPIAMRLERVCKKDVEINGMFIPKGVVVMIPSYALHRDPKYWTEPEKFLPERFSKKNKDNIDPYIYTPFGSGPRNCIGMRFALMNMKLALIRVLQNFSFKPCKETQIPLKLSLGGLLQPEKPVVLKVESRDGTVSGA

Candida albicans [29] = assay: Potency index, ratio of voriconazole MIC80 to test compound MIC for antifungal activity against Candida albicans SC5314 assessed as reduction in fungal growth incubated for 24 hrs by CLSI based microdilution analysis; type: functional
Candida albicans [30] = assay: Potency index, ratio of fluconazole MIC80 to test compound MIC for antifungal activity against Candida albicans SC5314 assessed as reduction in fungal growth incubated for 24 hrs by CLSI based microdilution analysis; type: functional
Candida albicans [31] = assay: Potency index, ratio of itraconazole MIC80 to test compound MIC for antifungal activity against Candida albicans SC5314 assessed as reduction in fungal growth incubated for 24 hrs by CLSI based microdilution analysis; type: functional

SMILES | MIC80 (Candida albicans [1]) [µg/mL] | MIC80 (Nakaseomyces glabratus) [µg/mL] | MIC80 (Candida parapsilosis) [µg/mL] | inhibition (INH) [3] [%] | MIC80 (Candida albicans [4]) [µg/mL] | MIC80 (Candida albicans [5]) [µg/mL] | MIC80 (Aspergillus fumigatus [6]) [µg/mL] | MIC80 (Candida albicans [7]) [µg/mL] | hemolysis at 1 h, 100 microg/ml [8] [%] | MIC80 (Candida albicans [9]) [µg/mL] | selectivity ratio (CYP3A4) | MIC80 (Candida albicans [10]) [µg/mL] | MIC80 (Candida tropicalis) [µg/mL] | inhibition (INH) [11] [%] | MIC80 (Candida albicans [12]) [µg/mL] | MIC80 [13] [µg/mL] | fold change (FC) (Candida albicans [14]) | MIC80 (Cryptococcus neoformans) [µg/mL] | Time (Candida albicans [21]) [days] | Time (Candida albicans [24]) [days] | further results
OC(Cn1cncn1)(Cn1cncn1)c1ccc(F)cc1F [FLUCONAZOLE] | > 100 | 2.5 (≈ 8.16 µM) | 1.25 (≈ 4.08 µM) | 17.61 | > 100 | > 100 | > 100 | > 100 | 1.7 | > 100 | 25 | 0.5 (≈ 1.63 µM) | 2.5 (≈ 8.16 µM) | 24.78 | 32 (≈ 104 µM) | 1.25 (≈ 4.08 µM) | 100 | 1.25 (≈ 4.08 µM) | – | – | fold change (FC) (Candida albicans [2]): 10
O[C@@](CN1CCN(CCn2ccc3cc(Br)ccc32)CC1)(Cn1cncn1)c1ccc(F)cc1F | 0.031 (≈ 0.0568 µM) | 0.078 (≈ 0.143 µM) | 0.008 (≈ 0.0147 µM) | 5.41 | 0.031 (≈ 0.0568 µM) | 0.015 (≈ 0.0275 µM) | 0.625 (≈ 1.15 µM) | 1.25 (≈ 2.29 µM) | 1.9 | 0.015 (≈ 0.0275 µM) | 100 | 0.004 (≈ 0.00733 µM) | 0.078 (≈ 0.143 µM) | 27.03 | 0.312 (≈ 0.572 µM) | 0.015 (≈ 0.0275 µM) | 8 | 0.015 (≈ 0.0275 µM) | 6 | 12 | Activity (Candida albicans [15]): Active; Activity (Aspergillus fumigatus [16]): Dose-Dependent Effect; Activity (Candida albicans [2]): Active; inhibition (INH) [17]: 21.3%; inhibition (INH) [18]: 13.8%; inhibition (INH) [19]: 14.9%; Activity (Candida albicans [20]): Active; Activity (Candida albicans [22]): Active; AUC(0-inf) [23]: 1260 ng·h/mL; clearance [25]: 26.7 mL/min/kg; Activity (Candida albicans [26]): Active; inhibition (INH) [27]: 33.33%; half-life [28]: 1.04 h; IC50 (Cytochrome P450 3A4): 400 nM
OC(CN1CCN(CCn2ccc3cc(Br)ccc32)CC1)(Cn1cncn1)c1ccc(F)cc1F (stereo not given) | 0.031 (≈ 0.0568 µM) | 0.156 (≈ 0.286 µM) | 0.015 (≈ 0.0275 µM) | – | 0.062 (≈ 0.114 µM) | 0.015 (≈ 0.0275 µM) | 0.625 (≈ 1.15 µM) | 1.25 (≈ 2.29 µM) | 1.2 | 0.015 (≈ 0.0275 µM) | – | 0.015 (≈ 0.0275 µM) | 0.156 (≈ 0.286 µM) | – | 0.312 (≈ 0.572 µM) | 0.015 (≈ 0.0275 µM) | – | 0.015 (≈ 0.0275 µM) | – | – | Ratio (Candida albicans [29]): 4; Ratio (Candida albicans [30]): 32; Ratio (Candida albicans [31]): 4
C[C@@H](c1ncncc1F)[C@](O)(Cn1cncn1)c1ccc(F)cc1F [VORICONAZOLE] | > 100 | 0.312 (≈ 0.893 µM) | 0.062 (≈ 0.177 µM) | – | > 100 | 25 (≈ 71.6 µM) | 0.312 (≈ 0.893 µM) | > 100 | – | > 100 | – | 0.062 (≈ 0.177 µM) | 0.312 (≈ 0.893 µM) | – | 0.625 (≈ 1.79 µM) | 0.062 (≈ 0.177 µM) | – | 0.031 (≈ 0.0887 µM) | 7 | 9 | –
